Tested on: MV-4-11 cells
Test: Gene expression microarray analysis (Affymetrix PrimeView) and GSEA
Format: cell-based, human
Set-up: RFU PODN (11730768_x_at) / Fold change /veh PODN (11730768_x_at) / RFU LINC00158 (11744669_a_at) / Fold change /veh LINC00158 (11744669_a_at) / RFU DUSP10 (11751237_a_at) / Fold change /veh DUSP10 (11751237_a_at) / RFU ID3 (11757404_x_at) / Fold change /veh ID3 (11757404_x_at) / RFU PLEKHG5 (11737974_s_at) / Fold change /veh PLEKHG5 (11737974_s_at) / RFU LRRC4B (11730491_at) / Fold change /veh LRRC4B (11730491_at) / RFU GIMAP4 (11747438_a_at) / Fold change /veh GIMAP4 (11747438_a_at) / RFU KRT8 (11758183_x_at) / Fold change /veh KRT8 (11758183_x_at) / RFU CNN1 (11734310_a_at) / Fold change /veh CNN1 (11734310_a_at) / RFU VPS37D (11726825_at) / Fold change /veh VPS37D (11726825_at) / RFU C10orf10 (11716522_x_at) / Fold change /veh C10orf10 (11716522_x_at) / RFU KIR2DL2 /// KIR2DL4 /// KIR2DL5A /// KIR2DL5B /// KIR2DS1 /// KIR2DS2 /// KIR2DS3 /// KIR2DS4 /// KIR3DL3 /// KIR3DL3 /// KIR3DS1 (11738374_at) / Fold change /veh KIR2DL2 /// KIR2DL4 /// KIR2DL5A /// KIR2DL5B /// KIR2DS1 /// KIR2DS2 /// KIR2DS3 /// KIR2DS4 /// KIR3DL3 /// KIR3DL3 /// KIR3DS1 (11738374_at) / RFU C1QL1 (11718748_at) / Fold change /veh C1QL1 (11718748_at) / RFU TMPRSS4 (11747572_a_at) / Fold change /veh TMPRSS4 (11747572_a_at) / RFU HAMP (11756126_x_at) / Fold change /veh HAMP (11756126_x_at) / RFU RNFT2 (11725882_a_at) / Fold change /veh RNFT2 (11725882_a_at) / RFU NR4A2 (11747474_a_at) / Fold change /veh NR4A2 (11747474_a_at) / RFU ABCC12 (11746883_a_at) / Fold change /veh ABCC12 (11746883_a_at) / RFU TMEM136 (11760407_x_at) / Fold change /veh TMEM136 (11760407_x_at) / RFU CLDN22 /// WWC2 (11732394_at) / Fold change /veh CLDN22 /// WWC2 (11732394_at) / RFU HLA-DPB1 (11760878_x_at) / Fold change /veh HLA-DPB1 (11760878_x_at) / RFU SPINT1 (11716480_a_at) / Fold change /veh SPINT1 (11716480_a_at) / RFU GAP43 (11754022_s_at) / Fold change /veh GAP43 (11754022_s_at) / RFU A4GNT (11735810_at) / Fold change /veh A4GNT (11735810_at) / RFU PRB3 (11715151_x_at) / Fold change /veh PRB3 (11715151_x_at) / RFU TUBB4B (11761932_at) / Fold change /veh TUBB4B (11761932_at) / RFU CAPN14 (11732068_a_at) / Fold change /veh CAPN14 (11732068_a_at) / RFU TMCC2 (11721928_a_at) / Fold change /veh TMCC2 (11721928_a_at) / RFU IRGQ (11745062_a_at) / Fold change /veh IRGQ (11745062_a_at) / RFU FAM174B (11720279_a_at) / Fold change /veh FAM174B (11720279_a_at) / RFU TMPRSS4 (11748680_a_at) / Fold change /veh TMPRSS4 (11748680_a_at) / RFU FAM212B (11763350_a_at) / Fold change /veh FAM212B (11763350_a_at) / RFU PLEKHG5 (11743358_a_at) / Fold change /veh PLEKHG5 (11743358_a_at) / RFU ZSCAN30 (11745921_a_at) / Fold change /veh ZSCAN30 (11745921_a_at) / RFU CMKLR1 (11741424_a_at) / Fold change /veh CMKLR1 (11741424_a_at) / RFU LOC101060620 /// MAPK8IP1 (11723275_at) / Fold change /veh LOC101060620 /// MAPK8IP1 (11723275_at) / RFU SPTSSB (11747773_x_at) / Fold change /veh SPTSSB (11747773_x_at) / RFU PRSS12 (11739890_at) / Fold change /veh PRSS12 (11739890_at) / RFU BIN1 (11741810_x_at) / Fold change /veh BIN1 (11741810_x_at) / RFU WNT11 (11732464_a_at) / Fold change /veh WNT11 (11732464_a_at) / RFU C10orf10 (11716521_a_at) / Fold change /veh C10orf10 (11716521_a_at) / RFU C5orf56 (11738089_at) / Fold change /veh C5orf56 (11738089_at) / RFU CYB561 (11721691_x_at) / Fold change /veh CYB561 (11721691_x_at) / RFU ANKRD19P (11752326_a_at) / Fold change /veh ANKRD19P (11752326_a_at) / RFU OR2T12 /// OR2T33 /// OR2T8 (11738714_s_at) / Fold change /veh OR2T12 /// OR2T33 /// OR2T8 (11738714_s_at) / RFU VCAN (11748164_a_at) / Fold change /veh VCAN (11748164_a_at) / RFU JSRP1 (11732532_at) / Fold change /veh JSRP1 (11732532_at) / RFU KRTAP10-11 (11738290_x_at) / Fold change /veh KRTAP10-11 (11738290_x_at) / RFU MYO3A (11730013_a_at) / Fold change /veh MYO3A (11730013_a_at) / RFU EBF3 (11725865_a_at) / Fold change /veh EBF3 (11725865_a_at) / RFU CAMK2N1 (11719241_x_at) / Fold change /veh CAMK2N1 (11719241_x_at) / RFU C5orf56 (11738088_a_at) / Fold change /veh C5orf56 (11738088_a_at) / RFU OLFML3 (11715873_a_at) / Fold change /veh OLFML3 (11715873_a_at) / RFU LOC100653217 /// NTM (11731650_a_at) / Fold change /veh LOC100653217 /// NTM (11731650_a_at) / RFU MAPK11 (11762145_a_at) / Fold change /veh MAPK11 (11762145_a_at) / RFU FIZ1 (11724087_x_at) / Fold change /veh FIZ1 (11724087_x_at) / RFU OASL (11726364_x_at) / Fold change /veh OASL (11726364_x_at) / RFU SOX15 (11748057_x_at) / Fold change /veh SOX15 (11748057_x_at) / RFU CD79A (11719716_a_at) / Fold change /veh CD79A (11719716_a_at) / RFU HIST1H1D (11736915_at) / Fold change /veh HIST1H1D (11736915_at) / RFU CASKIN2 (11723855_a_at) / Fold change /veh CASKIN2 (11723855_a_at) / RFU LOC730098 (11760151_x_at) / Fold change /veh LOC730098 (11760151_x_at) / RFU OR4N2 (11742367_at) / Fold change /veh OR4N2 (11742367_at) / RFU PRRT2 (11749266_a_at) / Fold change /veh PRRT2 (11749266_a_at) / RFU SNX32 (11753110_a_at) / Fold change /veh SNX32 (11753110_a_at) / RFU CDHR5 (11726645_a_at) / Fold change /veh CDHR5 (11726645_a_at) / RFU RCAN1 (11760418_a_at) / Fold change /veh RCAN1 (11760418_a_at) / RFU FAM167A (11723789_a_at) / Fold change /veh FAM167A (11723789_a_at) / RFU FAM26E (11764081_at) / Fold change /veh FAM26E (11764081_at) / RFU ISYNA1 (11749810_s_at) / Fold change /veh ISYNA1 (11749810_s_at) / RFU ACY1 (11761880_at) / Fold change /veh ACY1 (11761880_at) / RFU 11764098_at / Fold change /veh 11764098_at / RFU SAMD14 (11745864_x_at) / Fold change /veh SAMD14 (11745864_x_at) / RFU NPB (11741838_a_at) / Fold change /veh NPB (11741838_a_at) / RFU TMPRSS6 (11731388_a_at) / Fold change /veh TMPRSS6 (11731388_a_at) / RFU KRTAP10-2 (11738614_at) / Fold change /veh KRTAP10-2 (11738614_at) / RFU ARHGAP8 /// PRR5-ARHGAP8 (11727945_x_at) / Fold change /veh ARHGAP8 /// PRR5-ARHGAP8 (11727945_x_at) / RFU KRTAP5-7 /// NADSYN1 (11734609_at) / Fold change /veh KRTAP5-7 /// NADSYN1 (11734609_at) / RFU RASL12 (11751679_a_at) / Fold change /veh RASL12 (11751679_a_at) / RFU CDKN2B (11736163_a_at) / Fold change /veh CDKN2B (11736163_a_at) / RFU PRF1 (11729649_at) / Fold change /veh PRF1 (11729649_at) / RFU, ZNF638 /// ZNF638-IT1 / Fold change vs veh, ZNF638 /// ZNF638-IT1 / RFU, PANK3 / Fold change vs veh, PANK3 / RFU, SH3YL1 / Fold change vs veh, SH3YL1 / RFU, ZEB2 / Fold change vs veh, ZEB2 / RFU, NRIP1 / Fold change vs veh, NRIP1 / RFU, PTTG1IP / Fold change vs veh, PTTG1IP / RFU, CAPN2 / Fold change vs veh, CAPN2 / RFU, MED14 / Fold change vs veh, MED14 / RFU, SNORA58 / Fold change vs veh, SNORA58 / RFU, C1orf63 / Fold change vs veh, C1orf63 / RFU, LRRFIP1 / Fold change vs veh, LRRFIP1 / RFU, NDUFAF7 / Fold change vs veh, NDUFAF7 / RFU, SLC12A2 / Fold change vs veh, SLC12A2 / RFU, IBTK / Fold change vs veh, IBTK / RFU, ESF1 / Fold change vs veh, ESF1 / Fold change vs veh, TMEM50B / RFU, TAOK1 / Fold change vs veh, TAOK1 / RFU, ACBD3 / Fold change vs veh, ACBD3 / RFU, TMA16 / Fold change vs veh, TMA16 / RFU, RWDD3 / Fold change vs veh, RWDD3 / RFU, BCAT1 / Fold change vs veh, BCAT1 / RFU, EDEM3 / Fold change vs veh, EDEM3 / RFU, TMEM33 / Fold change vs veh, TMEM33 / RFU, WDR75 / Fold change vs veh, WDR75 / RFU, AHCTF1 / Fold change vs veh, AHCTF1 / RFU, TFRC / Fold change vs veh, TFRC / RFU, ZDHHC17 / Fold change vs veh, ZDHHC17 / RFU, NOM1 / Fold change vs veh, NOM1 / RFU, ARL8B / Fold change vs veh, ARL8B / RFU, ZBTB11 / Fold change vs veh, ZBTB11 / RFU, TAMM41 / Fold change vs veh, TAMM41 / RFU, KIAA1704 /// LOC100996395 / Fold change vs veh, KIAA1704 /// LOC100996395 / RFU, ING1 / Fold change vs veh, ING1 / RFU, TRMT61B / Fold change vs veh, TRMT61B / RFU, FUBP3 / Fold change vs veh, FUBP3 / RFU, TP53 / Fold change vs veh, TP53 / RFU, TNKS2 / Fold change vs veh, TNKS2 / RFU, ZFP14 / Fold change vs veh, ZFP14 / RFU, ACTR2 / Fold change vs veh, ACTR2 / RFU, PPP3R1 / Fold change vs veh, PPP3R1 / RFU, PIK3R1 / Fold change vs veh, PIK3R1 / RFU, HNRNPA1 / Fold change vs veh, HNRNPA1 / RFU, RNF170 / Fold change vs veh, RNF170 / RFU, ZNF28 / Fold change vs veh, ZNF28 / RFU, RNGTT / Fold change vs veh, RNGTT / RFU, OGT / Fold change vs veh, OGT / RFU, BRD1 / Fold change vs veh, BRD1 / RFU, MARS / Fold change vs veh, MARS / RFU, ZNF655 / Fold change vs veh, ZNF655 / RFU, FAHD1 / Fold change vs veh, FAHD1 / RFU, BDP1 / Fold change vs veh, BDP1 / RFU, LRRCC1 / Fold change vs veh, LRRCC1 / RFU, ARID1A / Fold change vs veh, ARID1A / RFU, ZNF146 / Fold change vs veh, ZNF146 / RFU, ZNF330 / Fold change vs veh, ZNF330 / RFU, GPN3 / Fold change vs veh, GPN3 / RFU, C9orf123 / Fold change vs veh, C9orf123 / RFU, N4BP2L2 / Fold change vs veh, N4BP2L2 / RFU, ARFIP1 / Fold change vs veh, ARFIP1 / RFU, FAM179B / Fold change vs veh, FAM179B / RFU, BCL10 / Fold change vs veh, BCL10 / RFU, UHRF1BP1L / Fold change vs veh, UHRF1BP1L / RFU, BET1 / Fold change vs veh, BET1 / RFU, CNOT2 / Fold change vs veh, CNOT2 / RFU, ZNF268 / Fold change vs veh, ZNF268 / Fold change vs veh, ZNF507 / RFU, DGCR2 / Fold change vs veh, DGCR2 / RFU, WDSUB1 / Fold change vs veh, WDSUB1 / Fold change vs veh, HSP90B1 /// MIR3652 / RFU, ADSS / Fold change vs veh, ADSS / RFU, GK / Fold change vs veh, GK / RFU, ZNF148 / Fold change vs veh, ZNF148 / RFU, TAF9 / Fold change vs veh, TAF9 / RFU, SLC1A5 / Fold change vs veh, SLC1A5 / RFU, SLMO2 / Fold change vs veh, SLMO2 / RFU, ABCC4 / Fold change vs veh, ABCC4 / RFU, LOC101060439 /// RAP1B / Fold change vs veh, LOC101060439 /// RAP1B / RFU, RFX7 / Fold change vs veh, RFX7 / RFU, GTPBP10 / Fold change vs veh, GTPBP10 / RFU, CNEP1R1 / Fold change vs veh, CNEP1R1 / RFU, BIVM-ERCC5 /// ERCC5 / Fold change vs veh, BIVM-ERCC5 /// ERCC5 / RFU, ILF3 / Fold change vs veh, ILF3 / RFU 11762660_at / Fold change /veh 11762660_at / RFU VCAN (11757783_s_at) / Fold change /veh VCAN (11757783_s_at) / RFU DDX43 (11728927_at) / Fold change /veh DDX43 (11728927_at) / RFU KRT8 (11758188_x_at) / Fold change /veh KRT8 (11758188_x_at) / RFU NKD1 (11759106_at) / Fold change /veh NKD1 (11759106_at) / RFU SRD5A1 (11742802_a_at) / Fold change /veh SRD5A1 (11742802_a_at) / RFU TPSAB1 /// TPSB2 (11721975_s_at) / Fold change /veh TPSAB1 /// TPSB2 (11721975_s_at) / RFU GSTM3 (11746129_a_at) / Fold change /veh GSTM3 (11746129_a_at) / RFU IL23R (11737362_x_at) / Fold change /veh IL23R (11737362_x_at) / RFU TMEM51 (11727254_a_at) / Fold change /veh TMEM51 (11727254_a_at) / RFU PIWIL2 (11732686_x_at) / Fold change /veh PIWIL2 (11732686_x_at) / RFU ORM1 (11744905_x_at) / Fold change /veh ORM1 (11744905_x_at) / RFU CCDC152 (11743942_at) / Fold change /veh CCDC152 (11743942_at) / RFU ECM1 (11717891_a_at) / Fold change /veh ECM1 (11717891_a_at) / RFU IL23R (11748794_a_at) / Fold change /veh IL23R (11748794_a_at) / RFU TNFAIP8L3 (11732012_x_at) / Fold change /veh TNFAIP8L3 (11732012_x_at) / RFU MBOAT4 (11741988_at) / Fold change /veh MBOAT4 (11741988_at) / RFU 11764193_at / Fold change /veh 11764193_at / RFU TMEM53 (11763286_at) / Fold change /veh TMEM53 (11763286_at) / RFU MAGEB2 (11727129_at) / Fold change /veh MAGEB2 (11727129_at) / RFU TMEM200A (11744735_a_at) / Fold change /veh TMEM200A (11744735_a_at) / RFU CCDC152 (11751479_a_at) / Fold change /veh CCDC152 (11751479_a_at) / RFU FAM211A (11726209_a_at) / Fold change /veh FAM211A (11726209_a_at) / RFU RGS16 (11746705_a_at) / Fold change /veh RGS16 (11746705_a_at) / RFU VCAN (11755009_s_at) / Fold change /veh VCAN (11755009_s_at) / RFU RHOB (11743442_s_at) / Fold change /veh RHOB (11743442_s_at) / RFU RGS16 (11720943_a_at) / Fold change /veh RGS16 (11720943_a_at) / RFU RGS16 (11720944_at) / Fold change /veh RGS16 (11720944_at) / RFU, VPS4B / Fold change vs veh, VPS4B / RFU, CREB1 / Fold change vs veh, CREB1 / RFU, DNAJC13 / Fold change vs veh, DNAJC13 / RFU, GNAQ / Fold change vs veh, GNAQ / RFU, CDK5R1 / Fold change vs veh, CDK5R1 / RFU, ZRANB3 / Fold change vs veh, ZRANB3 / RFU, CUL4A / Fold change vs veh, CUL4A / RFU, CCNY / Fold change vs veh, CCNY / RFU, UFL1 / Fold change vs veh, UFL1 / RFU, COG3 / Fold change vs veh, COG3 / RFU, DIAPH2 / Fold change vs veh, DIAPH2 / RFU, SKA2 / Fold change vs veh, SKA2 / RFU, AFF3 / Fold change vs veh, AFF3 / RFU, LMF1 / Fold change vs veh, LMF1 / RFU, IPO11 / Fold change vs veh, IPO11 / RFU, DFFB / Fold change vs veh, DFFB / RFU, FOXP1 / Fold change vs veh, FOXP1 / RFU, CARD8 / Fold change vs veh, CARD8 / RFU, STRN3 / Fold change vs veh, STRN3 / RFU, ADK / Fold change vs veh, ADK / RFU, RASSF2 / Fold change vs veh, RASSF2 / RFU, WIPF1 / Fold change vs veh, WIPF1 / RFU, LARP1B / Fold change vs veh, LARP1B / RFU, RASA1 / Fold change vs veh, RASA1 / RFU, RB1 / Fold change vs veh, RB1 / RFU, PPFIA1 / Fold change vs veh, PPFIA1 / RFU, MAT2A / Fold change vs veh, MAT2A / RFU, CCT5 / Fold change vs veh, CCT5 / RFU, WDR92 / Fold change vs veh, WDR92 / RFU, CUX1 / Fold change vs veh, CUX1 / RFU, TTC7A / Fold change vs veh, TTC7A / RFU, TMEM135 / Fold change vs veh, TMEM135 / RFU, DEPTOR / Fold change vs veh, DEPTOR / RFU, CPM / Fold change vs veh, CPM / RFU, DNAJB6 / Fold change vs veh, DNAJB6 / RFU, CACNA2D3 / Fold change vs veh, CACNA2D3 / RFU, DTX4 / Fold change vs veh, DTX4 / RFU, TFCP2 / Fold change vs veh, TFCP2 / RFU, GMCL1 /// GMCL1P1 / Fold change vs veh, GMCL1 /// GMCL1P1 / RFU, AEBP2 / Fold change vs veh, AEBP2 / RFU, SNHG1 /// SNORD22 /// SNORD25 /// SNORD26 /// SNORD27 /// SNORD28 /// SNORD29 /// SNORD31 / Fold change vs veh, SNHG1 /// SNORD22 /// SNORD25 /// SNORD26 /// SNORD27 /// SNORD28 /// SNORD29 /// SNORD31 / Fold change (Aza/veh), C12orf56 (ProbeSet 11735607_a_at) / Fold change (ACY-1035/veh), C12orf56 (ProbeSet 11735607_a_at) / Fold change (Aza/veh), FGFR1OP (ProbeSet 11751329_s_at) / Fold change (ACY-1035/veh), FGFR1OP (ProbeSet 11751329_s_at) / Fold change (Aza/veh), VPS36 (ProbeSet 11739960_a_at) / Fold change (ACY-1035/veh), VPS36 (ProbeSet 11739960_a_at) / RFU SYPL1 (11715823_x_at) / Fold change /veh SYPL1 (11715823_x_at) / RFU IGFBP7 (11715501_s_at) / Fold change /veh IGFBP7 (11715501_s_at) / RFU REEP3 (11722064_at) / Fold change /veh REEP3 (11722064_at) / RFU IGLL1 (11728026_x_at) / Fold change /veh IGLL1 (11728026_x_at): dose or concentration left out as unconfirmed
Details: ProbeSet 11722302_a_at; LIST B

For `Nc1ncn([C@@H]2O[C@H](CO)[C@@H](O)[C@H]2O)c(=O)n1` [azacitidine], the “RFU, LRRFIP1” value was 130.71 RFU.

— PMC5218480 (PLoS ONE, 2017)
